Results taken from PubChem BioAssay AID651703 (Broad Institute, 2012).
Values joined by “and” are separate entries in the source; they are usually repeats but may differ in a detail not shown here. Identical values can stand only once.

Target: Transforming acidic coiled-coil-containing protein 3 (Homo sapiens) (UniProt Q9Y6A5)
Test: inhibition of ARNT PAS-B/TACC3 complex formation – biochemical, AlphaScreen, cherry-picked samples, confirmation (AID 651703);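 also: TACC3 partner is the GST-tagged E629A mutant dimer; hits lower the signal meaning they disrupt ARNT binding to TACC3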
Conditions: AlphaScreen His-ARNT PAS-B / GST-TACC3 binding, luminescence

c1ccc(-c2nnc(-c3ccccn3)nc2N2CCC(N3CCOCC3)CC2)cc1 and c1ccc(-c2nnc(-c3ccccn3)nc2NCC2CC2)cc1 cannot be ordered by AC50: under 0.5 µM for the first, under 0.5 µM for the second.

Going from Cn1c(-c2ccc(Cl)cc2)cnc1N to CC(C)COCc1ccc(O)c2ncccc12, the AC50 falls from 20.5 µM to 3.53 µM (5.8-fold).

O=S(=O)(N[C@H]1CC[C@H](CCn2cc(-c3ccccn3)nn2)O[C@@H]1CO)c1cccc(F)c1 and O=S(=O)(N[C@H]1CC[C@@H](CCn2cc(-c3ccccn3)nn2)O[C@@H]1CO)c1cccc(F)c1 are within 1.5-fold of each other in AC50: 10.7 µM for the first, 10.9 µM for the second.

COc1ccc(Br)cc1CNc1ccc(O)cc1 and CNc1ccc2nc3ccccc3[n+](C)c2c1 are within 1.5-fold of each other in AC50: 37.6 µM for the first, 29.9 µM for the second.

Compared with O=S(=O)(N[C@H]1CC[C@H](CCn2cc(-c3ccccn3)nn2)O[C@H]1CO)c1cccc(Cl)c1, O=C(N[C@@H]1CC[C@H](CCn2cc(-c3ccccn3)nn2)O[C@H]1CO)c1cccnc1 is 2.2-fold lower in AC50: 26.6 µM for the first, 12.2 µM for the second.

Compared with O=C(NCCCn1ccnc1)C(=O)NCC1OCCN1S(=O)(=O)c1ccc(Cl)cc1 (configuration not stated), COc1ccc(S(=O)(=O)N2CCCOC2CNC(=O)C(=O)NCCCn2ccnc2)cc1OC (configuration not stated) is 4.4-fold higher in AC50: 10.8 µM for the first, 47.2 µM for the second.

CN(C)CCN(C(=O)c1ccc2c(c1)CCCC2)c1nc2cc3c(cc2s1)OCCO3 and COc1ccc(C(=O)Nc2nnc(C3=COCCO3)o2)cc1 are within 1.5-fold of each other in AC50: 19.9 µM for the first, 24.9 µM for the second.

Compared with O=[N+]([O-])c1cccc(/C=N/Nc2nc(NCc3ccccc3)nc(N3CCOCC3)n2)c1O, O=C(Oc1c(CN2CCOCC2)cc(Cl)c2cccnc12)c1ccccc1 is 8-fold higher in AC50: 2.29 µM for the first, 18.3 µM for the second.

Going from Oc1c(CN2CCCCC2)cc(Br)c2cccnc12 to Cc1ccc(Nc2nc(N)nc(CN3CCCCCC3)n2)cc1, the AC50 rises from 0.995 µM to 34.4 µM (35-fold).

Going from Cc1cccc(C(=O)Nc2nnc(C3=COCCO3)o2)c1 to CC1CCCN(S(=O)(=O)c2ccc(C(=O)Nc3nnc(C4CC4)o3)cc2)C1 (configuration not stated), the AC50 rises from 12.6 µM to 31.9 µM (2.5-fold).

Going from Oc1ccc(CNC2Cc3ccccc3C2)c2cccnc12 to COc1cccc(C2c3[nH]c4ccccc4c3CCN2Cc2ncc[nH]2)c1 (configuration not stated), the AC50 rises from 0.63 µM to 38 µM (60-fold).

O=C(CSc1ccc(-c2ccccn2)nn1)c1ccc([N+](=O)[O-])cc1 and O=C(CSc1ccc(-c2ccccn2)nn1)c1ccccc1 are within 1.5-fold of each other in AC50: 4.73 µM for the first, 3.36 µM for the second.

O=C(CSc1n[nH]c(-c2ccccn2)n1)Nc1ccccc1 and Cc1ccc(C)c(NC(=O)CSc2n[nH]c(-c3ccccn3)n2)c1 are within 1.5-fold of each other in AC50: 0.706 µM for the first, 0.574 µM for the second.

Going from O=C(CN1CC(=O)Oc2ccccc21)OCC(=O)c1ccccc1 to CSCc1cc(N(C)c2ccccc2)nc(-c2ccccn2)n1, the AC50 rises from 1.1 µM to 5.86 µM (5.3-fold).

Going from COc1cc(NC(=O)CSc2ccc(-c3ccccn3)nn2)cc(OC)c1 to COc1ccc(C)cc1NC(=O)CSc1ccc(-c2ccccn2)nn1, the AC50 rises from 1.78 µM to 3.11 µM (1.7-fold).

O=C(NNc1ccccn1)C(=O)NNS(=O)(=O)c1ccc(F)cc1 and O=C(Nc1ccc(F)cc1)c1nc[nH]c1C(=O)O are within 1.5-fold of each other in AC50: 15.5 µM for the first, 14.3 µM for the second.

Compared with O=C(NCCCn1ccnc1)Nc1cccc(Cl)c1, Cc1cccc(NC(=O)CCC(=O)N/N=C/c2ccc(O)cc2O)c1 is 2.3-fold higher in AC50: 9.64 µM for the first, 22.4 µM for the second.

O=C(N[C@@H]1CC[C@@H](CCn2cc(-c3ccccn3)nn2)O[C@H]1CO)c1cccnc1 and O=C(N[C@@H]1CC[C@H](CCn2cc(-c3ccccn3)nn2)O[C@@H]1CO)c1cccnc1 are within 1.5-fold of each other in AC50: 11.8 µM for the first, 13.5 µM for the second.

Going from Cc1n[nH]c(=O)nc1N/N=C/c1ccco1 to Cc1ccc(/C=N/Nc2cn[nH]c(=O)n2)o1, the AC50 falls from 42.5 µM to 26.3 µM (1.6-fold).

CCOc1ccc2c(c1)c(N=NC(=N)N)c(O)n2C and CCOc1cc(CNCc2ccccn2)cc(Cl)c1OC are within 1.5-fold of each other in AC50: 53.9 µM for the first, 39.7 µM for the second.

First: COc1ccc(NC(=O)Nc2ccc3c(c2)CC(=O)N([C@H](C)CO)C[C@H](C)[C@@H](CN(C)Cc2ccc(Oc4ccccc4)cc2)O3)cc1
Second: C[C@@H]1CCCCO[C@@H](CN(C)C(=O)Nc2cccc3ccccc23)[C@H](C)CN([C@@H](C)CO)C(=O)c2cc(NS(=O)(=O)c3cn(C)cn3)ccc2O1
The AC50 of the first is 2.4-fold lower: 23.6 µM for the first, 56.4 µM for the second.

First: O=C(Nc1nnc(C2CC2)o1)c1ccc(S(=O)(=O)N2CCCCC2)cc1
Second: O=C(NC[C@@H]1[C@H](c2ccccc2)[C@H](CO)N1Cc1ccccn1)C1CCCC1
The AC50 of the first is 2.2-fold lower: 18.4 µM for the first, 40.7 µM for the second.

First: C=CCn1c(Cc2csc(N)n2)nnc1SCC(=O)Nc1ccc(C(=O)OCC)cc1
Second: Cc1ccc(NC(=O)CSc2ccc(-c3ccccn3)nn2)cc1F
The AC50 of the first is 3.5-fold higher: 14.1 µM for the first, 3.98 µM for the second.

Compared with O=C(CSc1ccc2nnc(-c3ccccn3)n2n1)NCc1ccco1, Cc1ccccc1CNc1nc(-c2ccccn2)nnc1-c1ccccc1 is 15-fold lower in AC50: 9.49 µM for the first, 0.647 µM for the second.

Going from Cc1[nH][nH]c(=O)c1C(c1ccc(-c2ccc(F)cc2)o1)c1c(C)[nH][nH]c1=O to Cc1cccc(C)c1Nc1c(-c2ccccn2)nc2ccccn12, the AC50 falls from 19.6 µM to 8.6 µM (2.3-fold).

O=C(Nc1nc(-c2ccccn2)cs1)c1cc(Cl)ccc1[N+](=O)[O-] and CC(=O)NC(c1cccs1)c1cc([N+](=O)[O-])c2cccnc2c1O (configuration not stated) are within 1.5-fold of each other in AC50: 3.07 µM for the first, 2.71 µM for the second.

Going from c1ccc(CCNc2nc(-c3ccccn3)nc3ccccc23)cc1 to Nc1ccccc1C(=O)N=Nc1[nH]c(N)c2ccccc12, the AC50 falls from 20.1 µM to 10.3 µM (2-fold).

Going from Oc1ccc(/C=N/Nc2ccc(Cl)nn2)c(O)c1O to CO[C@@H]1CN(C)C(=O)c2ccc(NC(=O)c3ccccn3)cc2OC[C@@H](C)N(Cc2ccccn2)C[C@H]1C, the AC50 rises from 0.702 µM to 7.1 µM (10-fold).

With COc1ccccc1N1CCN(Cc2ccc(O)c3ncccc23)CC1 the AC50 was 0.669 µM and 2.18 µM.
